Laboratory results published in patent US20250136606A1, “MODULATORS OF TRPML, THEIR COMPOSITIONS AND METHODS OF USE” (Caraway Therapeutics, Inc., priority 2021, published 2025).
Read-outs that look alike come from different tables or passages of the source.

How the values were obtained:
Assay type in all cases: cell-based
TRPML1 = TRPML1 (Homo sapiens, UniProt Q9GZU1); test: Fluorescent TRPML1 assay (Fluo4-AM calcium fluorescence in doxycycline-induced HEK-293 Trex cells)
How it was run: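 EC50 values come from non-linear regression of percent activity, normalized to on-plate positive and negative controls, with fluorescence read at 480 nm excitation and 540 nm emission. Fluo4-AM-loaded (1 µM) doxycycline-induced HEK-293 Trex cells expressing mutated human TRPML1 were exposed in 10 mM calcium Ringer's to 6 nM–20 µM compound, in triplicate.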

TRPML3 = target: T1, TRPML3 (Homo sapiens, UniProt Q8TDD5); test: Fluorescent TRPML3 assay (performed as for TRPML1, substituting the TRPML3 subtype)
T1 construct: expressed in transfected cells
T1 sequence (Q8TDD5 1-553): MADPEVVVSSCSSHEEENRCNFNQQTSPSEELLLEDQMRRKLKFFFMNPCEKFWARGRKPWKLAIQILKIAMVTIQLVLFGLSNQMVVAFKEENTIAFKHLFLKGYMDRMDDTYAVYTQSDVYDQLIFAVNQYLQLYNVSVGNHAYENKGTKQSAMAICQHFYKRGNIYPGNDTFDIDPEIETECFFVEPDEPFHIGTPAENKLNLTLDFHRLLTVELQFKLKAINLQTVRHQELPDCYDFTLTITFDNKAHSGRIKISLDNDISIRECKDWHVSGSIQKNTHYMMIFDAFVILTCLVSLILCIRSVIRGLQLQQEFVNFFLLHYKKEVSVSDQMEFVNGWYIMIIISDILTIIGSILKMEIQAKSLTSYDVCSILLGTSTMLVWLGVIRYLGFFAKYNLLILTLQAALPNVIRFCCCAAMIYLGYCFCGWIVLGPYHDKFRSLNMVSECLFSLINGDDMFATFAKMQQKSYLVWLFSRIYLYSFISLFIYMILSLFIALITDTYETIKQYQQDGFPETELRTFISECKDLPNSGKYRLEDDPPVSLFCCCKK
How it was run: (§1)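 Doxycycline-induced (0.5 ug/mL) HEK-293 Trex cells stably expressing surface-directed mutant channel were loaded with 1 micromolar Fluo4-AM, resuspended in Ringer's with 10 mM calcium and added to compound plates. Fluorescence (ex 480, em 540 nm) gave percent activity versus on-plate controls; EC50 by non-linear regression.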

TRPML2 = target: T2, TRPML2 (Homo sapiens, UniProt Q8IZK6); test: Fluorescent TRPML2 assay (performed as for TRPML1, substituting the TRPML2 subtype)
T2 construct: expressed in transfected cells
T2 sequence (Q8IZK6 1-566): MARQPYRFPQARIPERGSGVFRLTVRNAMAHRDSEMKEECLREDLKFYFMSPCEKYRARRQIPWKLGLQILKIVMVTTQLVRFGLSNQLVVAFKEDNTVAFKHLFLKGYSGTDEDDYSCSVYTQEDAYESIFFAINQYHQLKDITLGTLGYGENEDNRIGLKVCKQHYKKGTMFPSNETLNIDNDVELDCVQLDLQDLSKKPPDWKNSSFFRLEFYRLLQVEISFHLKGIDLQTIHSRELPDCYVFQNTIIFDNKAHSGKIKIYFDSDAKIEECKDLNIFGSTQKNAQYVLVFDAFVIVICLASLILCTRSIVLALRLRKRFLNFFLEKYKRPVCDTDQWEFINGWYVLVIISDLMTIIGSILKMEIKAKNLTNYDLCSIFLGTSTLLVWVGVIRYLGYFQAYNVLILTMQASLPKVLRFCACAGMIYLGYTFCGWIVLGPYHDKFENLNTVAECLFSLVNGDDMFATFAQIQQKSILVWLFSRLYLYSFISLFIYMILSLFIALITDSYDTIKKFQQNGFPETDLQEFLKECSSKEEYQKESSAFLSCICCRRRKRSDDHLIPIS
How it was run: as §1

TRPML1, sequence (Q9GZU1 whole entry L15A/L16A/L577A/L578A, form open): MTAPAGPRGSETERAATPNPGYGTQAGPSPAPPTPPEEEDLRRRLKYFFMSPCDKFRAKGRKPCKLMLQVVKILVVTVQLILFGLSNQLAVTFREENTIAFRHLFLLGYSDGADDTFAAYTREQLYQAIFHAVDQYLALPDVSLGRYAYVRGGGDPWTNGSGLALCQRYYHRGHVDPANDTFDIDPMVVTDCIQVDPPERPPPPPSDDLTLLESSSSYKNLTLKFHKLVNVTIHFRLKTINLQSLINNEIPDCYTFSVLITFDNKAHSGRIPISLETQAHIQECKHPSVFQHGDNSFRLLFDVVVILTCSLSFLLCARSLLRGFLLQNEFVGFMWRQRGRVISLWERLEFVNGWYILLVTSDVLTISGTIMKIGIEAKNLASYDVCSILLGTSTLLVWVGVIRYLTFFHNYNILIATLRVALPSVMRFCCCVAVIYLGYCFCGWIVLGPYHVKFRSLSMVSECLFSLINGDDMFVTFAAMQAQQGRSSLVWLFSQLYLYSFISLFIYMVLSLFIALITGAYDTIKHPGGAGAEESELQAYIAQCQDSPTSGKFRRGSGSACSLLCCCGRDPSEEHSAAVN

C[C@@H]1CN(c2nccc3c2c(C2CC2)cn3-c2cc(F)cc(F)c2)CCN1C(=O)OC(C)(C)C [Compound 418, tert-butyl (R)-4-(3-cyclopropyl-1-(3,5-difluorophenyl)-1H-pyrrolo[3,2-c]pyridin-4-yl)-2-methylpiperazine-1-carboxylate]
EC50 (TRPML1; fluorescent calcium assay): < 100 nM | EC50 (TRPML3; fluorescent calcium assay): < 100 nM | EC50 (TRPML2; fluorescent calcium assay): 100 to 500 nM

C[C@@H]1CN(c2ncnc3c2c(N(C)C)cn3-c2cc(C#N)ccn2)CCN1C(=O)OC(C)(C)C [Compound 427, tert-Butyl (R)-4-(7-(4-cyanopyridin-2-yl)-5-(dimethylamino)-7H-pyrrolo[2,3-d]pyrimidin-4-yl)-2-methylpiperazine-1-carboxylate]
EC50 (TRPML1; fluorescent calcium assay): < 100 nM | EC50 (TRPML3; fluorescent calcium assay): < 100 nM | EC50 (TRPML2; fluorescent calcium assay): < 100 nM

Cc1cn(-c2ccc(F)cc2)c2ncnc(N3C[C@@H](C)N(C(=O)OC(C)(C)C)C[C@@H]3C)c12 [Compound 676, tert-butyl (2R,5S)-4-(7-(4-fluorophenyl)-5-methyl-7H-pyrrolo[2,3-d]pyrimidin-4-yl)-2,5-dimethylpiperazine-1-carboxylate]
EC50 (TRPML1): < 100 nM | EC50 (TRPML3): < 100 nM | EC50 (TRPML2): 100 to 500 nM

C[C@@H]1CN(c2ncnc3c2c(C(F)(F)F)cn3-c2cc(F)ccn2)[C@@H](C)CN1C(=O)OC(C)(C)C [Compound 505, tert-butyl (2R,5S)-4-(7-(4-fluoropyridin-2-yl)-5-(trifluoromethyl)-7H-pyrrolo[2,3-d]pyrimidin-4-yl)-2,5-dimethylpiperazine-1-carboxylate]
EC50 (TRPML1): < 100 nM | EC50 (TRPML3): < 100 nM | EC50 (TRPML2): > 2000 nM

CC(C)(C)OC(=O)N1CCN(c2ncnc3c2c(C2CC2)cn3-c2cc(F)cc(F)c2)C[C@H]1CF (single isomer, unassigned) [Compound 269]
EC50 (TRPML1; fluorescent calcium assay): 100 to 500 nM | EC50 (TRPML3; fluorescent calcium assay): < 100 nM | EC50 (TRPML2; fluorescent calcium assay): 500 to 2000 nM

Cc1cn(-c2cc(F)ccn2)c2ncnc(N3CCN(C(=O)OC(C)(C)C)[C@H](C)C3)c12 [Compound 678, tert-butyl (R)-4-(7-(4-fluoropyridin-2-yl)-5-methyl-7H-pyrrolo[2,3-d]pyrimidin-4-yl)-2-methylpiperazine-1-carboxylate]
EC50 (TRPML1): 100 to 500 nM | EC50 (TRPML3): 100 to 500 nM | EC50 (TRPML2): 100 to 500 nM

Cc1cncc(-n2cc(-c3cccnc3)c3c(N4C[C@@H](C)N(C(=O)OC(C)(C)C)C[C@@H]4C)ncnc32)c1 [Compound 178, tert-butyl (2R,5S)-2,5-dimethyl-4-(7-(5-methylpyridin-3-yl)-5-(pyridin-3-yl)-7H-pyrrolo[2,3-d]pyrimidin-4-yl)piperazine-1-carboxylate]
EC50 (TRPML1; fluorescent calcium assay): 100 to 500 nM | EC50 (TRPML3; fluorescent calcium assay): 500 to 2000 nM | EC50 (TRPML2; fluorescent calcium assay): > 2000 nM

C[C@@H]1CN(c2ncnc3c2c(C2CCC2)cn3-c2cc(C#N)ccn2)[C@@H](C)CN1C(=O)OC(C)(C)C [Compound 710, tert-butyl (2R,5S)-4-(7-(4-cyanopyridin-2-yl)-5-cyclobutyl-7H-pyrrolo[2,3-d]pyrimidin-4-yl)-2,5-dimethylpiperazine-1-carboxylate]
EC50 (TRPML1): < 100 nM | EC50 (TRPML3): < 100 nM | EC50 (TRPML2): 100 to 500 nM

C[C@H]1CN(c2ncnc3c2c(C2CC2)nn3-c2cc(F)cc(F)c2)CCN1C(=O)OC(C)(C)C [Compound 240, tert-Butyl (S)-4-(3-cyclopropyl-1-(3,5-difluorophenyl)-1H-pyrazolo[3,4-d]pyrimidin-4-yl)-2-methylpiperazine-1-carboxylate]
EC50 (TRPML1; fluorescent calcium assay): 100 to 500 nM | EC50 (TRPML3; fluorescent calcium assay): 100 to 500 nM | EC50 (TRPML2; fluorescent calcium assay): 500 to 2000 nM

C[C@@H]1CN(C(=O)OC(C)(C)C)CCN1c1ncnc2c1c(C1CC1)cn2-c1cccc(C#N)c1 [Compound 199, tert-butyl (R)-4-(7-(3-cyanophenyl)-5-cyclopropyl-7H-pyrrolo[2,3-d]pyrimidin-4-yl)-3-methylpiperazine-1-carboxylate]
EC50 (TRPML1; fluorescent calcium assay): 100 to 500 nM | EC50 (TRPML3; fluorescent calcium assay): 100 to 500 nM | EC50 (TRPML2; fluorescent calcium assay): 100 to 500 nM

Cc1nccnc1-c1cn(-c2ccccc2)c2ncnc(N3C[C@@H](C)N(C(=O)OC(C)(C)C)C[C@@H]3C)c12 [Compound 182, tert-butyl (2R,5S)-2,5-dimethyl-4-(5-(3-methylpyrazin-2-yl)-7-phenyl-7H-pyrrolo[2,3-d]pyrimidin-4-yl)piperazine-1-carboxylate]
EC50 (TRPML1; fluorescent calcium assay): 500 to 2000 nM | EC50 (TRPML3; fluorescent calcium assay): 500 to 2000 nM | EC50 (TRPML2; fluorescent calcium assay): > 2000 nM

COc1cncc(-n2cc(C3CC3)c3c(N4CCN(C(=O)OC(C)(C)C)CC4)ncnc32)c1 [Compound 104, tert-butyl 4-(5-cyclopropyl-7-(5-methoxypyridin-3-yl)-7H-pyrrolo[2,3-d]pyrimidin-4-yl)piperazine-1-carboxylate]
EC50 (TRPML1; fluorescent calcium assay): 500 to 2000 nM | EC50 (TRPML3; fluorescent calcium assay): 100 to 500 nM | EC50 (TRPML2; fluorescent calcium assay): > 2000 nM

C[C@H]1CN(C(=O)OC(C)(C)C)CCN1c1ncnc2c1c(C(C)(C)O)cn2-c1cc(C#N)ccn1 [Compound 484, tert-butyl (S)-4-(7-(4-cyanopyridin-2-yl)-5-(2-hydroxypropan-2-yl)-7H-pyrrolo[2,3-d]pyrimidin-4-yl)-3-methylpiperazine-1-carboxylate]
EC50 (TRPML1; fluorescent calcium assay): < 100 nM | EC50 (TRPML3; fluorescent calcium assay): < 100 nM | EC50 (TRPML2; fluorescent calcium assay): 100 to 500 nM

Cc1cn(-c2cc(C#N)ccn2)c2ccnc(N3C[C@@H](C)N(C(=O)OC(C)(C)C)C[C@@H]3C)c12 [Compound 705, tert-butyl (2R,5S)-4-(1-(4-cyanopyridin-2-yl)-3-methyl-1H-pyrrolo[3,2-c]pyridin-4-yl)-2,5-dimethylpiperazine-1-carboxylate]
EC50 (TRPML1): < 100 nM | EC50 (TRPML3): < 100 nM | EC50 (TRPML2): 500 to 2000 nM

C[C@H]1CN(C(=O)OC(C)(C)C)CCN1c1ncnc2c1c(N1CCOCC1)cn2-c1cc(F)cc(F)c1 [Compound 228, tert-Butyl (S)-4-(7-(3,5-difluorophenyl)-5-morpholino-7H-pyrrolo[2,3-d]pyrimidin-4-yl)-3-methylpiperazine-1-carboxylate]
EC50 (TRPML1; fluorescent calcium assay): 100 to 500 nM | EC50 (TRPML3; fluorescent calcium assay): 100 to 500 nM | EC50 (TRPML2; fluorescent calcium assay): 500 to 2000 nM

CCN(CC)c1cn(-c2cccc(Cl)c2)c2ncnc(N3CCN(C(=O)OC(C)(C)C)C[C@@H]3C)c12 [Compound 366, tert-butyl (S)-4-(7-(3-chlorophenyl)-5-(diethylamino)-7H-pyrrolo[2,3-d]pyrimidin-4-yl)-3-methylpiperazine-1-carboxylate]
EC50 (TRPML1; fluorescent calcium assay): < 100 nM | EC50 (TRPML3; fluorescent calcium assay): < 100 nM | EC50 (TRPML2; fluorescent calcium assay): 100 to 500 nM

C[C@H]1CN(C(=O)OC(C)(C)C)CCN1c1ncnc2c1c(C(F)F)cn2-c1cc(C#N)ccn1 [Compound 514, tert-butyl (S)-4-(7-(4-cyanopyridin-2-yl)-5-(difluoromethyl)-7H-pyrrolo[2,3-d]pyrimidin-4-yl)-3-methylpiperazine-1-carboxylate]
EC50 (TRPML1): < 100 nM | EC50 (TRPML3): < 100 nM | EC50 (TRPML2): < 100 nM

C[C@H]1CN(C(=O)OC(C)(C)C)CCN1c1ncnc2c1c(-c1ccccc1F)cn2-c1cc(C#N)ncn1 [Compound 437, tert-butyl (S)-4-(7-(6-cyanopyrimidin-4-yl)-5-(2-fluorophenyl)-7H-pyrrolo[2,3-d]pyrimidin-4-yl)-3-methylpiperazine-1-carboxylate]
EC50 (TRPML1; fluorescent calcium assay): < 100 nM | EC50 (TRPML3; fluorescent calcium assay): < 100 nM | EC50 (TRPML2; fluorescent calcium assay): < 100 nM

C[C@@H]1CN(C(=O)OC(C)(C)C)CCN1c1ncnc2c1c(C1CC1)cn2-c1ccc(Cl)cc1 [Compound 147, tert-butyl (R)-4-(7-(4-chlorophenyl)-5-cyclopropyl-7H-pyrrolo[2,3-d]pyrimidin-4-yl)-3-methylpiperazine-1-carboxylate]
EC50 (TRPML1; fluorescent calcium assay): 100 to 500 nM | EC50 (TRPML3; fluorescent calcium assay): < 100 nM | EC50 (TRPML2; fluorescent calcium assay): 100 to 500 nM

C[C@@H]1CN(c2ncnc3c2c(C2CC2)cn3-c2ccc(F)c(Cl)c2)CCN1C(=O)OC(C)(C)C [Compound 208, tert-butyl (R)-4-(7-(3-chloro-4-fluorophenyl)-5-cyclopropyl-7H-pyrrolo[2,3-d]pyrimidin-4-yl)-2-methylpiperazine-1-carboxylate]
EC50 (TRPML1; fluorescent calcium assay): < 100 nM | EC50 (TRPML3; fluorescent calcium assay): < 100 nM | EC50 (TRPML2; fluorescent calcium assay): 100 to 500 nM
